According to ChEMBL document CHEMBL3734733, “Optimization of on-resin palladium-catalyzed Sonogashira cross-coupling reaction for peptides and its use in a structure-activity relationship study of a class B GPCR ligand” (Eur J Med Chem, 2015):
Active and inactive are the calls of the source. The calls are words filed in the database; no cut-off is given here.

Assays:
SH-SY5Y = assay: Neuroprotective activity against MPP+-induced toxicity in human SH-SY5Y cells assessed as increase in cell viability at 100 nM preincubated for 4 hrs followed by incubation with MPP+ for 20 hrs measured after 24 hrs by MTS assay relative to control; assay type: functional
[1] = molecular target: T1, Vasoactive intestinal polypeptide receptor 2 (Homo sapiens, UniProt P41587); assay: Displacement of Ac-[125I]-PACAP27 from recombinant human VPAC2 expressed in CHO cells after 90 mins by gamma counting analysis; assay type: cell-based
T1 sequence (P41587 whole entry): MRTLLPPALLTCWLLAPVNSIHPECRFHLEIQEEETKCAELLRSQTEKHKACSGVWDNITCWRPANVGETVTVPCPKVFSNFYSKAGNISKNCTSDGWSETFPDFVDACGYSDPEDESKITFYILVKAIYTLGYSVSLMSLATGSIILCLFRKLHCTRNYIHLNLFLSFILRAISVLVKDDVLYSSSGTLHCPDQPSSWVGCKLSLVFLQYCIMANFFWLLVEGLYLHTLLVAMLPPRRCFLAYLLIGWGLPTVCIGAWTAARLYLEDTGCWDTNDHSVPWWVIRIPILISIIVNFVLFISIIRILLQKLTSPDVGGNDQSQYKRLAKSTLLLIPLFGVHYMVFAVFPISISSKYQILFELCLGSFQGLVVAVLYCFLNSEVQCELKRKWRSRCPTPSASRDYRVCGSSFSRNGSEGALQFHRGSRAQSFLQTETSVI

[2] = molecular target: T2, Vasoactive intestinal polypeptide receptor 1 (Homo sapiens, UniProt P32241); assay: Displacement of Ac-[125I]-PACAP27 from recombinant human VPAC1 expressed in CHO cells after 90 mins by gamma counting analysis; assay type: cell-based
T2 sequence (P32241 whole entry): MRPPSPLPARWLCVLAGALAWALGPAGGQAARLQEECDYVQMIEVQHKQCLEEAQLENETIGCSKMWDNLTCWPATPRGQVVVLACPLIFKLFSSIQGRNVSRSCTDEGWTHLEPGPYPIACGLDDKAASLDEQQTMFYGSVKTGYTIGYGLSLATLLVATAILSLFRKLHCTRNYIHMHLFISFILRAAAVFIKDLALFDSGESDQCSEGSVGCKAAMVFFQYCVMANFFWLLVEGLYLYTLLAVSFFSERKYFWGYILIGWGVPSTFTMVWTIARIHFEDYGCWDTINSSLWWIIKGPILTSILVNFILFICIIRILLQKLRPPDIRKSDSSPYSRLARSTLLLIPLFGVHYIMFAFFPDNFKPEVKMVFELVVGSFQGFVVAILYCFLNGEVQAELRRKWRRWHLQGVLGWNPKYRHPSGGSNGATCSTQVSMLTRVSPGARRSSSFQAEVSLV

[3] = molecular target: T3, Vasoactive intestinal polypeptide receptor 1 (Homo sapiens) (UniProt P32241); assay: Activation of VPAC1 in human SH-SY5Y cells assessed as stimulation of forskolin-induced cAMP production at 10^-7 to 10^-5 M after 30 mins; assay type: functional, cell-based
T3 sequence (whole entry): T2 sequence (P32241 whole entry)

[4] = molecular target: T4, Pituitary adenylate cyclase-activating polypeptide type I receptor (Homo sapiens, UniProt P41586); assay: Displacement of Ac-[125I]-PACAP27 from recombinant human PAC1 expressed in CHO cells after 90 mins by gamma counting analysis; assay type: cell-based
Target sequence in this assay (P41586 whole entry): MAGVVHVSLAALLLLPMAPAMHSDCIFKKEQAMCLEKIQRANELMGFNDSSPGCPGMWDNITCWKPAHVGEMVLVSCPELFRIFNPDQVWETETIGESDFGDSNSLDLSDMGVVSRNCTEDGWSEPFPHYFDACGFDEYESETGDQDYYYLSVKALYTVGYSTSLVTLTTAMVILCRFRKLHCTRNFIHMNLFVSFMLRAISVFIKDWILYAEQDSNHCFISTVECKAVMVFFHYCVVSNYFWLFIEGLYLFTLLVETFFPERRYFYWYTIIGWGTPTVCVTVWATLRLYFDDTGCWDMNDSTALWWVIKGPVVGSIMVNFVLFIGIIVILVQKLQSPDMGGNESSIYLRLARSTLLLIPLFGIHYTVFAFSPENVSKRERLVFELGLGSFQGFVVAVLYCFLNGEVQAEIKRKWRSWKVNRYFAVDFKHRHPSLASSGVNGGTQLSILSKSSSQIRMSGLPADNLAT

[5] = molecular target: T4, Pituitary adenylate cyclase-activating polypeptide type I receptor; assay: Activation of PAC1 in human SH-SY5Y cells assessed as stimulation of forskolin-induced cAMP production at 10^-7 to 10^-5 M after 30 mins; assay type: cell-based
Target sequence in this assay (P41586 21-468 limits assumed): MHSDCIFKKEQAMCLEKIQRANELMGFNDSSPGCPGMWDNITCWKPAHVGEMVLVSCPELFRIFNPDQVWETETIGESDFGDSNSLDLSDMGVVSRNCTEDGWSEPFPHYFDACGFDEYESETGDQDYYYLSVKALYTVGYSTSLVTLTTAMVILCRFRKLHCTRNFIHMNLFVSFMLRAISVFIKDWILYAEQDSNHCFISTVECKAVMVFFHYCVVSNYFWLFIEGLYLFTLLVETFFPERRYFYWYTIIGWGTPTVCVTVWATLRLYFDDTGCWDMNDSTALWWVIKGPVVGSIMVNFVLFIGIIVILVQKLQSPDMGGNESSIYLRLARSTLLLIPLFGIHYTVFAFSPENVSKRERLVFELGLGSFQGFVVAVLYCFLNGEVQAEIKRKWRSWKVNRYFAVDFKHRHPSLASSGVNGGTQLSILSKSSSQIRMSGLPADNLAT

[6] = molecular target: T5, Vasoactive intestinal polypeptide receptor 2 (Homo sapiens) (UniProt P41587); assay: Activation of VPAC2 in human SH-SY5Y cells assessed as stimulation of forskolin-induced cAMP production at 10^-7 to 10^-5 M after 30 mins; assay type: functional, cell-based
T5 sequence (whole entry): T1 sequence (P41587 whole entry)

Row | Structure (SMILES) | Activity (SH-SY5Y) [%] | IC50 ([1]; read-out: pIC50 (converted)) [nM] | IC50 ([2]; read-out: pIC50 (converted)) [nM] | Activity [3] | IC50 ([4]; read-out: IC50) [nM] | IC50 ([4]; read-out: pIC50 (converted)) [nM] | IC50 ([1]; read-out: IC50) [nM] | Activity [5] | Activity [6] | IC50 ([2]; read-out: IC50) [nM]
1 | CC[C@H](C)[C@H](NC(=O)CNC(=O)[C@H](CC(=O)O)NC(=O)[C@H](CO)NC(=O)[C@@H](N)Cc1cnc[nH]1)C(=O)N[C@@H](Cc1ccccc1)C(=O)N[C@H](C(=O)N[C@@H](CC(=O)O)C(=O)N[C@@H](CO)C(=O)N[C@@H](Cc1ccc(O)cc1)C(=O)N[C@@H](CO)C(=O)N[C@@H](CCCNC(=N)N)C(=O)N[C@@H](Cc1ccc(O)cc1)C(=O)N[C@@H](CCCNC(=N)N)C(=O)N[C@@H](CCCCN)C(=O)N[C@@H](CCC(N)=O)C(=O)N[C@@H](CCSC)C(=O)N[C@@H](C)C(=O)N[C@H](C(=O)N[C@@H](CCCCN)C(=O)N[C@@H](CCCCN)C(=O)N[C@@H](Cc1ccc(O)cc1)C(=O)N[C@@H](CC(C)C)C(=O)N[C@@H](C)C(=O)N[C@@H](C)C(=O)N[C@H](C(=O)N[C@@H](CC(C)C)C(N)=O)C(C)C)C(C)C)[C@@H](C)O | 85 |  |  |  |  |  |  |  |  | 
2 | CC[C@H](C)[C@H](NC(=O)CNC(=O)[C@H](CC(=O)O)NC(=O)[C@H](CO)NC(=O)[C@@H](N)Cc1cnc[nH]1)C(=O)N[C@@H](Cc1ccc(-c2ccccc2)cc1)C(=O)N[C@H](C(=O)N[C@@H](CC(=O)O)C(=O)N[C@@H](CO)C(=O)N[C@@H](Cc1ccc(O)cc1)C(=O)N[C@@H](CO)C(=O)N[C@@H](CCCNC(=N)N)C(=O)N[C@@H](Cc1ccc(O)cc1)C(=O)N[C@@H](CCCNC(=N)N)C(=O)N[C@@H](CCCCN)C(=O)N[C@@H](CCC(N)=O)C(=O)N[C@@H](CCSC)C(=O)N[C@@H](C)C(=O)N[C@H](C(=O)N[C@@H](CCCCN)C(=O)N[C@@H](CCCCN)C(=O)N[C@@H](Cc1ccc(O)cc1)C(=O)N[C@@H](CC(C)C)C(=O)N[C@@H](C)C(=O)N[C@@H](C)C(=O)N[C@H](C(=O)N[C@@H](CC(C)C)C(N)=O)C(C)C)C(C)C)[C@@H](C)O |  | 22.9 | 14.1 |  |  |  |  |  |  | 
3 | CC[C@H](C)[C@H](NC(=O)CNC(=O)[C@H](CC(=O)O)NC(=O)[C@H](CO)NC(=O)[C@@H](N)Cc1cnc[nH]1)C(=O)N[C@@H](Cc1ccc(C#Cc2ccccc2)cc1)C(=O)N[C@H](C(=O)N[C@@H](CC(=O)O)C(=O)N[C@@H](CO)C(=O)N[C@@H](Cc1ccc(O)cc1)C(=O)N[C@@H](CO)C(=O)N[C@@H](CCCNC(=N)N)C(=O)N[C@@H](Cc1ccc(O)cc1)C(=O)N[C@@H](CCCNC(=N)N)C(=O)N[C@@H](CCCCN)C(=O)N[C@@H](CCC(N)=O)C(=O)N[C@@H](CCSC)C(=O)N[C@@H](C)C(=O)N[C@H](C(=O)N[C@@H](CCCCN)C(=O)N[C@@H](CCCCN)C(=O)N[C@@H](Cc1ccc(O)cc1)C(=O)N[C@@H](CC(C)C)C(=O)N[C@@H](C)C(=O)N[C@@H](C)C(=O)N[C@H](C(=O)N[C@@H](CC(C)C)C(N)=O)C(C)C)C(C)C)[C@@H](C)O | 85 |  |  | Active | 53 | 44.7 | 53 | Active | Active | 12
4 | CC[C@H](C)[C@H](NC(=O)CNC(=O)[C@H](CC(=O)O)NC(=O)[C@H](CO)NC(=O)[C@@H](N)Cc1cnc[nH]1)C(=O)N[C@@H](Cc1ccc(C#Cc2ccc(F)cc2)cc1)C(=O)N[C@H](C(=O)N[C@@H](CC(=O)O)C(=O)N[C@@H](CO)C(=O)N[C@@H](Cc1ccc(O)cc1)C(=O)N[C@@H](CO)C(=O)N[C@@H](CCCNC(=N)N)C(=O)N[C@@H](Cc1ccc(O)cc1)C(=O)N[C@@H](CCCNC(=N)N)C(=O)N[C@@H](CCCCN)C(=O)N[C@@H](CCC(N)=O)C(=O)N[C@@H](CCSC)C(=O)N[C@@H](C)C(=O)N[C@H](C(=O)N[C@@H](CCCCN)C(=O)N[C@@H](CCCCN)C(=O)N[C@@H](Cc1ccc(O)cc1)C(=O)N[C@@H](CC(C)C)C(=O)N[C@@H](C)C(=O)N[C@@H](C)C(=O)N[C@H](C(=O)N[C@@H](CC(C)C)C(N)=O)C(C)C)C(C)C)[C@@H](C)O | 85 |  |  | Active | 57 |  | 36 | Active | Active | 9
